Counter-ions that a name gives are not always drawn.
Each compound was assayed on T1, primary mouse cortical neurons (assay: cells). Conditions: Cortical neurone, 20 h, read-out: % inhibition, inhibition of NMDA-induced cell death (protection score), 30 min pre-treatment.
T1 construct: primary cortical neurons, DIV 10
Set-up: Protection from NMDA-induced (30 uM, 10 min) neuronal death; Hoechst nuclear morphology by automated microscopy
Summary of the method: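 On DIV 10, primary mouse cortical neurons were given compound at 10 μM for 30 min at 37 °C, then 30 μM NMDA for 10 min, washed, and kept 20 h with compound. Dead cells were scored by nuclear morphology, and % protection was derived from survival relative to vehicle + NMDA and untreated controls.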
Compound `C[C@]12CC[C@H]3[C@@H](CC[C@@]45O[C@@H]4C(O)=C(C#N)C[C@]35C)[C@@H]1CC[C@@H]2O` [Trilostane] has an inhibition at 10 µM of 4.15%.
With `C[C@@H]1CC[C@@]2(OC1)O[C@H]1C[C@H]3[C@@H]4CC=C5C[C@@H](O)CC[C@]5(C)[C@H]4CC[C@]3(C)[C@H]1[C@@H]2C` [Diosgenin] the inhibition at 10 µM was -1.47%.
`COC(=O)Nc1nc2cc(Sc3ccccc3)ccc2[nH]1` [Fenbendazole (Panacur)] gave an inhibition at 10 µM of -8.52%.
Work on `O=C(O)c1cccnc1` [Niacin (Nicotinic acid)] yielded an inhibition at 10 µM of -0.509%.
With `O=C1[C@H](CC[C@H](O)c2ccc(F)cc2)[C@@H](c2ccc(O)cc2)N1c1ccc(F)cc1` [Ezetimibe (Zetia)] the inhibition at 10 µM was 21.4%.
`O=C1Nc2ccccc2/C1=C1/Nc2ccccc2C1=O` [Indirubin] gave an inhibition at 10 µM of 8.04%.
Work on `O=P(O)(O)C(O)(Cc1cccnc1)P(=O)(O)O` [Risedronate sodium] yielded an inhibition at 10 µM of 4.5%.
With `Cc1nnc(C(=O)NC(C)(C)c2nc(C(=O)NCc3ccc(F)cc3)c(O)c(=O)n2C)o1` [Raltegravir (MK-0518)] the inhibition at 10 µM was 8.86%.
`CN(C)CCCN1c2ccccc2CCc2ccc(Cl)cc21` [Clomipramine hydrochloride (Anafranil)] showed an inhibition at 10 µM of -0.839%.
Work on `CC(C)[N+]1(C)[C@@H]2CC[C@H]1CC(OC(=O)C(CO)c1ccccc1)C2` (some centres unmarked) [Ipratropium bromide] yielded an inhibition at 10 µM of 9.81%.
With `COC(=O)C1=C(C)NC(C)=C(C(=O)OCC(C)C)C1c1ccccc1[N+](=O)[O-]` (centres unmarked) [Nisoldipine (Sular)] the inhibition at 10 µM was -2.86%.
With `C[C@H]1O[C@H](O[C@H]2[C@H](O)[C@@H](O)[C@@H](O[C@@H]([C@H](O)[C@@H](O)C=O)[C@H](O)CO)O[C@@H]2CO)[C@H](O)[C@@H](O)[C@@H]1N[C@H]1C=C(CO)[C@@H](O)[C@H](O)[C@H]1O` [Acarbose] the inhibition at 10 µM was 4.12%.
Compound `CC(C)c1nc(CN(C)C(=O)N[C@H](C(=O)N[C@@H](Cc2ccccc2)C[C@H](O)[C@H](Cc2ccccc2)NC(=O)OCc2cncs2)C(C)C)cs1` [Ritonavir] has an inhibition at 10 µM of -1.84%.
For `CCc1cccc2c3c([nH]c12)C(CC)(CC(=O)O)OCC3` (centres unmarked) [Etodolac (Lodine)], the inhibition at 10 µM was 9.68%.
Compound `COc1cc2nc(N(C)CCCNC(=O)C3CCCO3)nc(N)c2cc1OC` (centres unmarked) [Alfuzosin hydrochloride (Uroxatral)] has an inhibition at 10 µM of -0.34%.
Compound `CC(C)NCC(O)COc1ccc(COCCOC(C)C)cc1` (centres unmarked) [Bisoprolol] has an inhibition at 10 µM of 10%.
`CN(C)CC/C=C1/c2ccccc2COc2ccc(CC(=O)O)cc21` [Olopatadine hydrochloride (Opatanol)] showed an inhibition at 10 µM of -8.38%.
`OC[C@@H](O)[C@@H](O)[C@H](O)[C@@H](O)CO` [Sorbitol (Glucitol)] was tested, and the inhibition at 10 µM was 3.24%.
`c1ccc([C@H]2CN3CCSC3=N2)cc1` [Levamisole Hydrochloride (Ergamisol)] showed an inhibition at 10 µM of 19.8%.
`O=c1c(O)c(-c2ccc(O)c(O)c2)oc2cc(O)ccc12` [Fisetin (Fustel)] was tested, and the inhibition at 10 µM was -2.5%.
`C#Cc1cccc(Nc2ncnc3cc(OCCOC)c(OCCO)cc23)c1` [OSI-420 (Desmethyl Erlotinib)] was tested, and the inhibition at 10 µM was -0.167%.
Compound `CCC[C@@H]1C[C@@H](C(=O)N[C@@H]([C@H]2O[C@H](SC)[C@H](O)[C@@H](O)[C@H]2O)[C@H](C)Cl)N(C)C1` [Clindamycin hydrochloride (Dalacin)] has an inhibition at 10 µM of 2.41%.
For `CCC1=C[C@@H]2CN(C1)Cc1c([nH]c3ccccc13)[C@@](C(=O)OC)(c1cc3c(cc1OC)N(C)[C@H]1[C@@](O)(C(=O)OC)[C@H](OC(C)=O)[C@]4(CC)C=CCN5CC[C@]31[C@@H]54)C2` [Vinorelbine (Navelbine)], the inhibition at 10 µM was -1.98%.
With `O=C(O[C@@H]1Cc2c(O)cc(O)cc2O[C@@H]1c1cc(O)c(O)c(O)c1)c1cc(O)c(O)c(O)c1` [(-)-Epigallocatechin gallate] the inhibition at 10 µM was 4.13%.
`O=C1CCC(N2C(=O)c3ccccc3C2=O)C(=O)N1` (centres unmarked) [Thalidomide] gave an inhibition at 10 µM of -3.3%.
Compound `CC(C(=O)O)c1cccc(Oc2ccccc2)c1` (centres unmarked) [Fenoprofen calcium] has an inhibition at 10 µM of 1.38%.
`COCCCOc1cc(C[C@@H](C[C@H](N)[C@@H](O)C[C@H](C(=O)NCC(C)(C)C(N)=O)C(C)C)C(C)C)ccc1OC` [Aliskiren hemifumarate] showed an inhibition at 10 µM of 30.5%.
With `OC(Cn1cncn1)(Cn1cncn1)c1ccc(F)cc1F` [Fluconazole] the inhibition at 10 µM was 6.24%.
`CC(=O)O[C@H]1C(=O)[C@@]2(C)[C@H]([C@H](OC(=O)c3ccccc3)[C@]3(O)C[C@H](OC(=O)[C@H](O)[C@@H](NC(=O)c4ccccc4)c4ccccc4)C(C)=C1C3(C)C)[C@]1(OC(C)=O)CO[C@@H]1C[C@@H]2O` [Paclitaxel (Taxol)] was tested, and the inhibition at 10 µM was -12.8%.
Compound `CN(C)CCOc1ccc(/C(=C(/CCCl)c2ccccc2)c2ccccc2)cc1` [Toremifene Citrate (Fareston, Acapodene)] has an inhibition at 10 µM of -2.81%.
For `C[C@]12C=CC(=O)C=C1CC[C@@H]1[C@@H]2C(=O)C[C@@]2(C)[C@H]1CC[C@]2(O)C(=O)CO` [Prednisone (Adasone)], the inhibition at 10 µM was 28.4%.
Work on `C#Cc1cccc(Nc2ncnc3cc(OCCOC)c(OCCOC)cc23)c1` [Erlotinib HCl] yielded an inhibition at 10 µM of 22.9%.
In the case of `CC(C)(C)NC(=O)[C@H]1CC[C@H]2[C@@H]3CC[C@H]4NC(=O)C=C[C@]4(C)[C@H]3CC[C@]12C` [Finasteride], the inhibition at 10 µM is reported as 59.6%.
`CNCC(O)c1ccc(O)cc1` (centres unmarked) [Synephrine (Oxedrine)] was tested, and the inhibition at 10 µM was 3.83%.
In the case of `O=C1c2c(O)cc(O)cc2O[C@H](c2ccc(O)c(O)c2)[C@H]1O` [Taxifolin (Dihydroquercetin)], the inhibition at 10 µM is reported as 12.2%.
For `NCCc1ccc(O)c(O)c1` [Dopamine hydrochloride (Inotropin)], the inhibition at 10 µM was -1.44%.
`COC1=C(OC)C(=O)C(C/C=C(\C)CC/C=C(\C)CC/C=C(\C)CC/C=C(\C)CC/C=C(\C)CC/C=C(\C)CC/C=C(\C)CC/C=C(\C)CC/C=C(\C)CCC=C(C)C)=C(C)C1=O` [Coenzyme Q10(CoQ10)] gave an inhibition at 10 µM of 9.82%.
`COc1ccc(-c2cc(=O)c3c(O)cc(O)cc3o2)cc1O` [Diosmetin (Luteolin 4-methyl ether)] gave an inhibition at 10 µM of 8.81%.
`CO[C@H]1/C=C/O[C@@]2(C)Oc3c(C)c(O)c4c(O)c(c5c(c4c3C2=O)=NC2(CCN(CC(C)C)CC2)N=5)NC(=O)/C(C)=C\C=C\[C@H](C)[C@H](O)[C@@H](C)[C@@H](O)[C@@H](C)[C@H](OC(C)=O)[C@@H]1C` [Rifabutin (Mycobutin)] showed an inhibition at 10 µM of -2.35%.
Compound `CS(=O)(=O)OCCCCOS(C)(=O)=O` [Busulfan (Myleran, Busulfex)] has an inhibition at 10 µM of 15.7%.
For `O=c1cc(-c2ccccc2)oc2cc(O)cc(O)c12` [Chrysin], the inhibition at 10 µM was -0.0506%.
For `N=c1ccn2c(n1)O[C@H]1[C@H](O)[C@@H](CO)O[C@H]12` [Cyclocytidine HCl], the inhibition at 10 µM was -2.19%.
`CNC[C@H](O)c1ccc(O)c(O)c1` [Epinephrine bitartrate (Adrenalinium)] showed an inhibition at 10 µM of -0.43%.
`O=C1c2c(O)cccc2[C@H]([C@@H]2O[C@H](CO)[C@@H](O)[C@H](O)[C@H]2O)c2cc(CO)cc(O)c21` [Aloin (Barbaloin)] showed an inhibition at 10 µM of 0.91%.
`CC(=O)O[C@H]1C[C@@H]2CC[C@@H]3[C@H](CC[C@@]4(C)[C@H]3C[C@H]([N+]3(C)CCCCC3)[C@@H]4OC(C)=O)[C@@]2(C)C[C@@H]1[N+]1(C)CCCCC1` [Pancuronium (Pavulon)] showed an inhibition at 10 µM of 7.54%.
`C[C@H](O)[C@H](O)[C@@H](O)[C@@H](O)C=O` [L(+)-Rhamnose Monohydrate] was tested, and the inhibition at 10 µM was 0.562%.
For `NC12CC3CC(CC(C3)C1)C2` [Amantadine hydrochloride (Symmetrel)], the inhibition at 10 µM was 1.41%.

Source: publication PMC7489219 (Molecular Brain, 2020)
